Earlier results as cited in patent US12514830B2, “Idebenone for the treatment of Acute Respiratory Distress Syndrome (ARDS) in patients diagnosed with a coronavirus infection” (BEMIDO SA, priority 2020, dated 2026).

System: patients with Duchenne muscular dystrophy (DMD)
Conditions: long-term treatment, for up to 6 years, real-world setting

COC1=C(OC)C(=O)C(CCCCCCCCCCO)=C(C)C1=O [idebenone, 2-(10-hydroxydecyl)-5,6-dimethoxy-3-methyl-cyclohexa-2,5-diene-1,4-dione]
rate of respiratory function loss: consistently reduced the rate of respiratory function loss
